Measurements taken from patent US20250339531A1, “DUX4 POLYPEPTIDES AND NUCLEIC ACIDS FOR TREATING INFLAMMATORY AND AUTOIMMUNE CONDITIONS” (Fred Hutchinson Cancer Center, priority 2021, published 2025).
“Also recorded” adds a separate entry of the source.

Tests used:
Assay type in all cases: cell-based, human
[1] = test system: eIF2-alpha, RPS6, 4EBP1, eIF4E, eEF2; experiment: Immunoblot of translational regulators; details: MB135 myoblasts, 4-hour pulse of doxycycline
Procedure: (§1) Protein samples were harvested in RIPA buffer [150 mM NaCl, 1% NP-40, 0.5% Na-deocycholate, 1% SDS, 25 mM Tris-HCl pH7.4] supplemented with protease and phosphatase inhibitor tablets (Pierce), followed by sonication in Diagenode Bioruptor. Lysate was cleared by centrifugation at 16000×g and quantified using a Pierce BCA assay (Thermo Fisher Scientific). Samples were run on NuPAGE precast polyacrylamide gels (Invitrogen) and transferred to PVDF membrane. Membranes were blocked in PBS containing 0.1% Tween-20 and 5% non-fat dry milk before overnight incubation at 4° C. with primary antibodies (see resource table for a list of antibodies used in this study). Membranes were incubated with horseradish peroxidase-conjugated secondary antibodies for 1 hour at room temperature and SuperSignal chemiluminescent substrate (Thermo Scientific) was used for detection on film with a Mini-medical 90 processor. Membranes were stripped with Restore Western Blot Stripping Buffer (Pierce).

[2] = test system: HLA-A, HLA-B, HLA-C, PSMB8, PSMB9, PSMB10 mRNA; experiment: mRNA levels of MHC-I and immunoproteasome genes (RT-PCR, RNA-seq); details: MB135iDUX4 cells
Procedure: (§2) Myoblasts were transfected with either (final concentrations) 10 μM 2′,3′-cGAMP (Sigma Aldrich), 2 μg/mL poly(I:C) (Invitrogen), or 1 μg/mL 3′ppp-dsRNA RIG-I ligand (Dan Stetson Lab, UW) using Lipofectamine 2000 according to manufacturer's protocol, or were stimulated with 1000U IFNβ (PeproTech) or 200 ng/ml IFNγ (R+D Systems) by addition directly to cell culture medium. After 16 hours of immune stimulation, RNA was collected from cells using the NucleoSpin RNA Kit (Macherey-Nagel) according to manufacturer's instructions. RNA samples were quantified by nanodrop and 1 μg of RNA per sample was treated with DNase I Amplification Grade (Thermo Fisher), and then synthesized into cDNA using the Superscript IV First-Strand Synthesis System, including oligo dT primers (Invitrogen). qPCR was run in 384-well plates on an Applied Biosystems QuantStudio 6 Flex Real-Time PCR System (ABI) and analyzed in Microsoft Excel.
Total RNA was isolated using the NucleoSpin RNA kit (Machery-Nagel) or Direct-zol RNA Mini-Prep Kit (Zymo Research) according to manufacturer's instructions. RNA-seq libraries were prepared using the Illumina TruSeq RNA Sample Prep v2 Kit and sequenced using 50 bp paired-end sequencing on the Illumina NextSeq platform by the Fred Hutchinson Cancer Center Genomics Core.

[3] = test system: MEL375 cells; experiment: IFNG-induced MHC class I in MEL375 melanoma cells (immunoblot, FACS)
Procedure: Expression of DUX4-CTD fragment suppresses interferon-induced MHC Class I expression and requires intact (L)LxxL(L) motifs. Human melanoma MEL375 cells were transduced with doxycycline inducible vectors expressing the 3×Flag-nls-tagged DUX4 CTD-154-424 (iDUX4-CTD) (SEQ ID NOS: 8-9) or the similar constructs with a mutation in the first (L)LxxL(L) motif and a deletion of the second (L)LxxL(L) motif (iDUX4-mL1dL2) (SEQ ID NOS: 10-11). Cells were treated with doxycycline (1 μg/ml) for four hours followed by the addition of interferon-gamma treatment for 16 hrs (50 ng/ml).

[4] = test system: ZSCAN4; experiment: Activation of DUX4 target gene ZSCAN4, RT-qPCR; details: MB135 cells ± doxycycline
Procedure: (§3) All myoblast experiments were conducted in immortalized MB135 or MB200 myoblast cell lines (isolated from a control or FSHD2 subject, respectively cultured in Ham's F-10 Nutrient Mix (Gibco) supplemented with 15% fetal bovine serum (Hyclone), 100 U/100 μg/ml penicillin/streptomycin (Gibco), 1 μM dexamethasone (Sigma), and 10 ng/ml recombinant human basic fibroblast growth factor (PeproTech). To differentiate the myoblasts to myotubes, media was changed to DMEM supplemented with 10 μg/ml insulin (Sigma) and 10 μg/ml transferrin (Sigma). Cell lines containing doxycycline-inducible transgenes were additionally cultured with 2 μg/mL puromycin (Sigma). Transgenes were induced with 1 μg/mL of doxycycline (Sigma) for 4 hours prior to other treatments for a total of 20 hrs. The Kitra-SRS cells (RRID:CVCL_YI69) were provided by Dr. H. Otani and Osaka University (Nakai et al., 2019) and were cultured in DMEM supplemented with 10% fetal bovine serum (Hyclone) and 100 U/100 μg/ml penicillin/streptomycin (Gibco). Biological replicates consisted of independent but parallel experiments, such as simultaneously stimulating three cell culture plates with IFNγ. Technical replicates consisted of repeat measurements of the same biological sample, such as loading the same biological sample in triplicate for analysis by RT-qPCR.
as §2

[5] = test system: ISG induction by IFNG; experiment: RNA-seq of IFNG-induced genes in MB135 cells; details: doxycycline + IFNG; for IFNG-induced genes whose induction was suppressed more than 2-fold (percent) / IFNG-induced genes whose induction was suppressed more than 4-fold (percent): genes induced by IFNG (log 2 fold-change >3)
Procedure: RNA was extracted as described above from untreated, doxycycline-treated, IFNγ-treated, or doxycycline- and IFNγ-treated samples. RNA was submitted to the Fred Hutchinson Cancer Research Center Genomics Core for library preparation using the TruSeq3 Stranded mRNA kit (Illumina) followed by size and quality analysis by Tapestation (Agilent). Libraries were sequenced on a NextSeq P2-100 (Illumina).
Sequencing analysis was performed using R version 4.0.3 (R Core Team, 2020). Sequencing reads were trimmed using Trimmomatic (version 0.39) (Bolger et al., 2014, Trimmomatic: a flexible trimmer for Illumina sequence data. Bioinformatics 30, 2114-2120), and aligned to the Homo sapiens GRCh38 reference genome with the Rsubread aligner (Liao et al., 2019, The R package Rsubread is easier, faster, cheaper and better for alignment and quantification of RNA sequencing reads. Nucleic Acids Res 47, e47). Gene counts were analyzed using featureCounts (v2.0.1) (Liao et al., 2019, supra) and the Gencode v35 annotation file. Normalization and differential expression analysis were done with DESeq2 (v1.26.0) (Love et al., 2014, Moderated estimation of fold change and dispersion for RNA-seq data with DESeq2. Genome Biol 15, 550).

[6] = test system: interferon-stimulated genes IFIH1, ISG20, CXCL9, and CD74; experiment: IFNG induction of interferon-stimulated genes, RT-qPCR in MB135 cells with doxycycline-inducible transgenes; details: for suppression of IFNG induction of ISGs (IFIH1, ISG20, CXCL9, CD74): MB135 cells, doxycycline-induced transgene, continuous protocol, IFNG 16 h
Procedure: as §3, §2

[7] = test system: RPL10A, RPL4, RPS6, RPS15A, MYOD1, DES; experiment: Immunoblot of ribosomal proteins and myogenic factors; details: DUX4 pulse+IFNG relative to IFNG
Procedure: as §1

[8] = 113 genes induced by IFNG (log 2 fold-change >3)

Substance: DUX4: human DUX4 protein SEQ ID NO:3 expressed from doxycycline inducible codon altered transgene SEQ ID NO:2
- status of translational regulators after a pulse of transgene [1]: sufficient to induce phosphorylation of eIF2-alpha; also recorded: brief reduction in phosphorylation of ribosomal protein S6 (RPS6); also recorded: prolonged dephosphorylation of 4EBP1 and a correlated loss of phosphorylated eukaryotic initiation factor 4E (eIF4E); also recorded: increased phosphorylation of eukaryotic elongation factor 2 (eEF2) on threonine 56; also recorded: enhanced phosphorylation of eEF2 at Thr56 and reduced phosphorylation of eIF4E at Ser209
- effect on IFNG-induced mRNAs of MHC class I / immunoproteasome genes, continuous protocol [2]: profound inhibition of the IFNG-induction of the mRNA for MHC class I genes; also recorded: partially suppresses the IFNG induction of the mRNAs for PSMB8, 9, and 10; also recorded: partly blocked IFNG stimulation of HLA-A, HLA-B, HLA-C, PSMB8, PMSB9, and PSMB10 mRNA levels
- effect on IFNG-induced mRNAs of MHC class I / immunoproteasome genes, pulsed protocol [2]: little suppression of their mRNAs; also recorded: nearly full induction of these mRNAs; also recorded: still exhibited IFNG-induced mRNA levels significantly above untreated samples
- suppression of MHC class I proteins in MEL375 cells, pulse protocol ([3]; Mel375iDUX4): prolonged suppression of MHC class I proteins in the MEL375 melanoma cell line
- transcriptional activation of DUX4 target gene ZSCAN4 [4]: strongly induced
- transcriptional activation of DUX4 target gene ZSCAN4 ([4]; listed as iDUX4-CA): robust activator of its target gene ZSCAN4
- transcriptional activation of DUX4 target gene ZSCAN4 ([4]; listed as wild-type DUX4): Only the wild-type DUX4 shows transcriptional activation of its target gene
- IFNG-induced genes whose induction was suppressed more than 2-fold (number) [5, 8]: 102 genes
- IFNG-induced genes whose induction was suppressed more than 4-fold (number) [5, 8]: 76 genes
- IFNG-induced genes whose induction was suppressed more than 2-fold (percent) [5]: 90%
- IFNG-induced genes whose induction was suppressed more than 4-fold (percent) [5]: 67%
- suppression of IFNG induction of ISGs (IFIH1, ISG20, CXCL9, CD74) [6]: blocks induction of ISGs IFIH1 and ISG20 by IFNG and IFNB1; also recorded: robustly blocked
- suppression of IFNG induction of ISGs (IFIH1, ISG20, CXCL9, CD74) ([6]; listed as iDUX4-CA): suppresses IFNG induction of all for ISGs
- protein levels of ribosomal proteins and myogenic factors [7]: RPL10A, RPL4, RPS6, and RPS15A are suppressed by DUX4; also recorded: both were suppressed at the protein level

Substance: longCTD: 3×FLAG tag and nls in frame with carboxyterminal 271 amino acids of DUX4 (aa154-424), SEQ ID NOS: 8-9
- MHC surface protein expression by FACS ([3]; MEL375 cells, doxycycline then IFNG): decreased MHC surface protein expression
- suppression of IFNG-induced MHC class I proteins in MEL375 cells ([3]; doxycycline 1 μg/ml 4 h then IFNG 50 ng/ml 16 hrs): suppresses IFNG induction of MHC proteins
- transcriptional activation of DUX4 target gene ZSCAN4 [4]: transcriptionally silent
- IFNG-induced genes whose induction was suppressed more than 2-fold (percent) [5]: 90%
- IFNG-induced genes whose induction was suppressed more than 4-fold (percent) [5]: 52%
- suppression of RNA induction of GBP1, IDO1, CXCL10 by IFNG ([6]; MB135-iDUX4-CTD cells used for STAT1 ChIP): robustly suppressed the RNA induction by IFNG
- suppression of IFNG induction of ISGs (IFIH1, ISG20, CXCL9, CD74) [6]: sufficient to block most or all ISG induction by IFNG; also recorded: suppresses three of the four IFNG-induced genes
- suppression of IFNG induction of ISGs (IFIH1, ISG20, CXCL9, CD74) ([6]; listed as iDUX4-CTD): equally suppressed activation of ISGs
